This is an account of results in patent publication US6720423B2, “Dihydrobenzofuran and dihydrobenzothiophene 2,4-pentadienoic acid derivatives having selective activity for retinoid X (RXR) receptors” (Allergan, Inc., priority 2002, dated 2004).

The target of one experiment is T1, RXRγ (UniProt P28705).
T1 sequence (P28705 1-463): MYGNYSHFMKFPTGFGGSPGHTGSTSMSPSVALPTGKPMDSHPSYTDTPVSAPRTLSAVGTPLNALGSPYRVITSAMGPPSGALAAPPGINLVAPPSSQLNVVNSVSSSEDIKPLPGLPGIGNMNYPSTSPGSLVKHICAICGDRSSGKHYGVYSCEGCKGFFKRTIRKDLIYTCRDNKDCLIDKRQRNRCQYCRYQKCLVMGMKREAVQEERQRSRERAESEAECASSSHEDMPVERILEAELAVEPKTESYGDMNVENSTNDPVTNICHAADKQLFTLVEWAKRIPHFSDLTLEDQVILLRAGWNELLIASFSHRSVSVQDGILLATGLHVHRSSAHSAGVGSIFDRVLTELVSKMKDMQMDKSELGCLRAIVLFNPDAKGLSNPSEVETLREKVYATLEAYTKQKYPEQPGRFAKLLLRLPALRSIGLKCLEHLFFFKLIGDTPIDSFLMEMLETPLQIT
Description: receptor transactivation assay, RXRγ. In kind it is cell-based. Details: RXR Trans; other: RXRγ; first entry of cell. The following applies: for EC50: first entry of cell, read-out: RXR Trans. EC50 (nM) γ; for RXR Trans. γ, number in parentheses after EC50: parenthesised number, not defined in the patent. The text has this:
(§1) A holoreceptor transactivation assay and a ligand binding assay which measure the antagonist/agonist like activity of the compounds of the invention, or their ability to bind to the several retinoid receptor subtypes, respectively, are described in published PCT Application No. WO WO93/11755 (particularly on pages 30-33 and 37-41) published on Jun. 24, 1993, the specification of which is also incorporated herein by reference. A detailed experimental procedure for holoreceptor transactivations has been described by Heyman et al. Cell 68, 397-406, (1992); Allegretto et al. J. Biol. Chem. 268, 26625-26633, and Mangelsdorf et al. The Retinoids: Biology, Chemistry and Medicine, pp 319-349, Raven Press Ltd., New York, which are expressly incorporated herein by reference. The results obtained in this assay are expressed in EC50 numbers, as they are also in the chimeric receptor transactivation assay. The results of ligand binding assay are expressed in Kd numbers. (See Cheng et al. Biochemical Pharmacology Vol. 22 pp 3099-3108, expressly incorporated herein by reference.)

The next experiment deals with T2, RXRβ (UniProt P28704).
T2 sequence (P28704 1-520): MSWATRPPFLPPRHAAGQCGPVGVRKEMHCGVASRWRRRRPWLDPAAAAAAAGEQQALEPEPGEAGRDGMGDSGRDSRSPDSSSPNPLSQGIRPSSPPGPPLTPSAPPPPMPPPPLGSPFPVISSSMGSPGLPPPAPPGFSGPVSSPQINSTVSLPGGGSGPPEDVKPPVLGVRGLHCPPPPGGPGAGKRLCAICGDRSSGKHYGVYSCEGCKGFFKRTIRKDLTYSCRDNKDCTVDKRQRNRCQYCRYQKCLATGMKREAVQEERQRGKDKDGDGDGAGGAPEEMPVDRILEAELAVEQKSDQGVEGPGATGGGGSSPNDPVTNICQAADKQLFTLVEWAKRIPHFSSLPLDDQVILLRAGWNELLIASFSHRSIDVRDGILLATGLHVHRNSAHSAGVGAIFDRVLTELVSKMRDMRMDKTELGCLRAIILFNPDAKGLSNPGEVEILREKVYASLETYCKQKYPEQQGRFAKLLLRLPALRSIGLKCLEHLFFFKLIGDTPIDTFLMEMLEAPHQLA
Description: ligand binding assay, RXRβ. More on the design: other: RXRβ; last entry of cell. Particulars: last entry of cell, read-out: RXR Bind Ki (nM) β.
Source text: as §1

The next experiment has as its target T3, RARβ (Homo sapiens, UniProt P10826).
T3 sequence (P10826 1-455): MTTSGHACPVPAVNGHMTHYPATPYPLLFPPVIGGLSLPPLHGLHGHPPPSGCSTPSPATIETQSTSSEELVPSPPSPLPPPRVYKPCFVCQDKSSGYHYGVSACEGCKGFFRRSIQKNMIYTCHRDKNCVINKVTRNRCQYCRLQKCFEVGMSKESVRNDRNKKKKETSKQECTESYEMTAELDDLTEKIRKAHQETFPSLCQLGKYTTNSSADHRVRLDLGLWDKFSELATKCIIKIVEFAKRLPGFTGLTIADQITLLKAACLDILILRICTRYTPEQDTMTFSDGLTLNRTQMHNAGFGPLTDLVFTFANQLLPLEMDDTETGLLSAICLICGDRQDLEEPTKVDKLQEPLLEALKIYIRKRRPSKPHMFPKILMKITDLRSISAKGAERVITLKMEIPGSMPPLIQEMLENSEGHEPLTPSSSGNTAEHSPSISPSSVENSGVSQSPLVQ
Briefly: ligand binding assay, RARβ. Particulars: second entry of cell, read-out: RAR Bind. Ki (nM) β.
Source text: as §1

In a further experiment the target is T4, RARγ (Homo sapiens, UniProt P13631).
T4 sequence (P13631 1-454): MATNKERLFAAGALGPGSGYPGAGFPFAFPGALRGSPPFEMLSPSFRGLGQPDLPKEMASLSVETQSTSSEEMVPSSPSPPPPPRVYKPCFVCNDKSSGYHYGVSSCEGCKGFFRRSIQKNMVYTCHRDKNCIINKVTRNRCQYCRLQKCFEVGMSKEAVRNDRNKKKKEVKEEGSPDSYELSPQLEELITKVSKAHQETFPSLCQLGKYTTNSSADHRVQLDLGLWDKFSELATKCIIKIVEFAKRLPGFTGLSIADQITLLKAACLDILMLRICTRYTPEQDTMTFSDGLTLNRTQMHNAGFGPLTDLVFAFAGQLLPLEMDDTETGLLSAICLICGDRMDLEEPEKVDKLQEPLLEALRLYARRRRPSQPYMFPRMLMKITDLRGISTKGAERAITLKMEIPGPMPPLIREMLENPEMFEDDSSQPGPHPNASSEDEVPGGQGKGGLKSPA
Description: ligand binding assay, RARγ. The following applies: second entry of cell, read-out: RAR Bind. Ki (nM) γ.
Source text: as §1

For orientation: EC50 means the concentration giving half of the maximal effect. A word on the Ki: it is the equilibrium dissociation constant of an inhibitor or competing ligand from its target. On to `CCc1cc([C@@]2(C)C[C@H]2/C=C/C(C)=C/C(=O)O)cc2c1OCC2(C)C` [Compound 6], for which, at RXRγ, the EC50 came out at 0.56 nM. Besides, the “RXR Trans. γ, number in parentheses after EC50” value (shortened to “RXR Trans. γ, number”) on RXRγ is 85. Besides, the inhibition constant Ki at RXRβ was 1.8 nM; at RARβ, above 30000 nM; on RARγ it was 13000 nM.
For `CCCCC(O)CCc1cc([C@@]2(C)C[C@H]2/C=C/C(C)=C/C(=O)O)cc2c1OCC2(C)C` (stereo partly drawn) [Compound 38, (E)-3-((E)-2-{(1S,2S)-2-[7-(3-Hydroxy-heptyl)-3,3-dimethyl-2,3-dihydro-benzofuran-5-yl]-2-methyl-cyclopropyl}-vinyl)-but-2-enoic acid], in that order: 7680 nM, 142, 557 nM, above 10000 nM and above 10000 nM.
For the compound `CC(/C=C/[C@@H]1C[C@]1(C)c1cc(-c2ccccc2)c2c(c1)C(C)(C)CO2)=C\C(=O)O` [Compound 22, 6S,7S)-7-[5-(3,3-Dimethyl-7-phenyl-2,3-dihydro-benzofuranyl)1-6,7-methano-3-methyl-octa-2E,4E-dienoic acid], the half-maximal effective concentration (EC50) on RXRγ stood at 12.8 nM. Further, on RXRγ, the “RXR Trans. γ, number” value is given as 110. For the same compound, the figures for the inhibitory constant (Ki) at RXRβ, on RARβ and at RARγ were 9.6 nM, above 10000 nM and above 5260 nM, respectively.
For the compound `CCCCC(=O)CCc1cc([C@@]2(C)C[C@H]2/C=C/C(C)=C/C(=O)O)cc2c1OCC2(C)C` [Compound 40], the concentration giving a half-maximal response (EC50) on RXRγ stood at 395 nM. Besides, the “RXR Trans. γ, number” value on RXRγ worked out at 94. The figures for the inhibition constant (Ki) at RXRβ, at RARβ and on RARγ were 69 nM, 22000 nM and above 10000 nM, respectively.
Taken in the same sequence, the figures for `COc1ccc(-c2cc([C@@]3(C)C[C@H]3/C=C/C(C)=C/C(=O)O)cc3c2OCC3(C)C)cc1` [Compound 32, (E)-3-((E)-2-{(1S,2S)-2-[7-(4-Methoxy-phenyl)-3,3-dimethyl-2,3-dihydro-benzofuran-5-yl]-2-methyl-cyclopropyl}-vinyl)-but-2-enoic acid] were 561 nM, 106, 926 nM, 15000 nM and above 10000 nM.
For `CC(/C=C/[C@@H]1C[C@]1(C)c1cc(-c2ccccc2C)c2c(c1)C(C)(C)CO2)=C\C(=O)O` [Compound 26, 5-[(1S,2S)-2-(3,3-Dimethyl-7-o-tolyl-2,3-dihydro-benzofuran-5-yl)-2-methyl-cyclopropyl]-3-methyl-penta-2E,4E-dienoic acid], in that order: 0.32 nM, 107, 1.9 nM, above 10000 nM and above 10000 nM.
For `CC(/C=C/[C@@H]1C[C@]1(C)c1ccc2c(c1)C(C)(C)CO2)=C\C(=O)O` [Compound 2, (6S,7S)-7-[5-(3,3-Dimethyl-2,3-dihydro-benzofuranyl)]-6.7-methano-3-methyl-octa-2E,4E-dienoic Acid], in that order: 2.7 nM, 119, 21.1 nM, above 10000 nM and above 10000 nM.
`CC(/C=C/[C@@H]1C[C@]1(C)c1cc(C)c2c(c1)C(C)(C)CO2)=C\C(=O)O` [Compound 4, (6S,7S)-7-[5-(3,3,7-Trimethyl-2,3-dihydro-benzofuranyl)]-6,7-methano-3-methyl-octa-2E,4E-dienoic acid]: at RXRγ, the EC50 turned out to be 4.4 nM. The “RXR Trans. γ, number” value at RXRγ was determined as 108. Besides, the inhibition constant (Ki) at RXRβ is 74 nM; on RARβ it was above 10000 nM; at RARγ it was above 10000 nM.
